In patent US20250236610A1, “3-[(1H-PYRAZOL-4-YL)OXY]PYRAZIN-2-AMINE COMPOUNDS AS HPK1 INHIBITOR AND USE THEREOF” (BeiGene, Ltd., priority 2020, published 2025):

Experiments:
[1] = target: HPK1 kinase (aa1-346, Life Technologies) (Homo sapiens (Human), UniProt Q92918); experiment: HPK Kinase Activity Assay at 1 mM ATP (TR-FRET); type: biochemical; details: HPK1 kinase 40 nM, 0.5 μM STK1 substrate, read-out: Enzymatic activity IC50
[2] = tested on: pSLP76(S376) level in Jurkat cell line; experiment: Cellular pSLP76(S376) HTRF Assay; type: cell-based; details: Homo sapiens, Jurkat cells, 2 h compound treatment, 0.05 μg/mL anti-human CD3 (OKT3) 30 min

Chain of HPK1 kinase (aa1-346, Life Technologies) (Q92918 1-346): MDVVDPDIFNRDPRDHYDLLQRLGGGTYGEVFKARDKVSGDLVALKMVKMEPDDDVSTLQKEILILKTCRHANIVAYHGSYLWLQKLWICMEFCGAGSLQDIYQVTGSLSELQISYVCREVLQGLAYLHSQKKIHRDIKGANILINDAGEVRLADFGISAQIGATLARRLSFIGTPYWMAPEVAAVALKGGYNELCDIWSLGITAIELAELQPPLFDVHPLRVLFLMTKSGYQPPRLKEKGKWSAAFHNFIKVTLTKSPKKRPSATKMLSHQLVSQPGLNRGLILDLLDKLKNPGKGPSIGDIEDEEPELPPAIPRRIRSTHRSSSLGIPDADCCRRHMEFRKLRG

IC50 [1] [µM]	IC50 [2] [µM]	Compound
0.0045	0.068	C[C@@H]1COCCN1c1cc(-c2cnc(N)c(Oc3cnn(C4CCN(C)CC4)c3)n2)cc([C@]2(O)CCO[C@H]2C)c1 (single isomer, unassigned) [Example A95B]
0.044		C[C@@H]1COCCN1c1cc(-c2cnc(N)c(Oc3cnn(C4CCN(C)CC4)c3)n2)cc([C@@]2(O)CCO[C@@H]2C)c1 (single isomer, unassigned) [Example A95A]
